Patent publication US20220146526A1, “METHOD FOR EVALUATING SAMPLE, ANALYSIS METHOD, METHOD FOR DETECTING DEGRADED SAMPLE, MARKER FOR DETECTING DEGRADED BLOOD PLASMA SAMPLE, AND MARKER FOR DETECTING DEGRADED SERUM SAMPLE” (SHIMADZU CORPORATION, priority 2019, published 2022)

Experiments:
Type in all cases: physicochemical, human
[1] = GC/MS of blood plasma sample: time from blood collection to cooling of blood (Table B); design: key to Rate of increase or decrease / Rate of increase or decrease (first value, increase): detection intensity relative to 1 at cooling time ≤1 min; conditions: for Increase or decrease: detection intensity, blood collection to cooling 5 minutes or more vs 1 minute or less; for Rate of increase or decrease: detection intensity relative to 1 at 1 minute or less, blood collection to cooling 5 minutes
Experimental: (§1) At room temperature, 5 mL of blood from a healthy subject was taken into a blood-collecting vessel containing EDTA, and the blood-collecting vessel was inverted for mixing, then cooled, and allowed to stand at 4° C. Here, in order to investigate how the detection intensity of molecules contained in the sample was affected in a case where the time to cooling was set to 5 minutes or more as compared to that in a case where the time to cooling was set to 1 minute or less, preparations were performed under both the former condition and the latter condition. After standing, the blood sample was subjected to centrifugation under a condition of 4° C., 3000 rpm, and 15 minutes. […] After centrifugation, the blood-collecting vessel was left to stand at room temperature for 30 minutes, and the blood plasma was isolated during this 30 minutes. The obtained blood plasma sample was frozen and stored. Here, in order to investigate how the detection intensity of molecules contained in the sample was affected in cases where freezing and thawing was performed 4 times, 6 times, and 10 times after freezing as compared to that in a case where freezing and thawing was performed 2 times after freezing, freezing and thawing was performed under the respective conditions of 2, 4, 6, and 10 times.
(§2) Frozen blood plasma samples and serum samples were subjected to GC/MS or LC/MS. In GC/MS, the blood plasma samples and serum samples were subjected to methoxymation and trimethylsilylation and then introduced to GC-MS.
(§3) GC/MS was conducted using GCMS·TQ8040 (Shimadzu Corporation) that was a GC·MS equipped with AOC·20i (Shimadzu Corporation) as an autosampler.
(§4) Column: BPX5 (inner diameter of 0.25 mm, length of 30 m, and film thickness of 0.25 μm) (SGE)
(§5) Column temperature: maintained at 60° C. for 2 minutes, then raised at 15° C./min, and maintained at 330° C. for 3 minutes.
(§6) Inlet temperature: 250° C.
(§7) Carrier gas control mode: constant linear velocity of 39.0 cm/sec
(§8) Sample introduction method: split (split ratio of 30:1) Injection volume: 1 μL
(§9) Ionization method: electron ionization
(§10) Ionization current: 60 μA
(§11) Interface temperature: 280° C.
(§12) Ion source temperature: 200° C.
(§13) Mode: multiple reaction monitoring (MRM)
Table B presents compounds of which the detection intensity increased or decreased by 30% or more in a case where the time from blood collection to cooling of blood, when a blood plasma sample was analyzed by GC/MS, was set to 5 minutes or more as compared to that in a case where the time was set to 1 minute or less. The rate of increase or decrease in Table B is the value of detection intensity relative to 1 that is the detection intensity in a case where the time from blood collection to cooling is set to 1 minute or less.

[2] = GC/MS of serum sample: number of times of freezing and thawing (Table I); design: key to Rate of increase or decrease / Rate of increase or decrease (first value, increase): detection intensity relative to 2 freeze-thaw cycles = 1
How it was run: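 Serum was isolated after centrifugation at room temperature (3500 rpm, 5 min), frozen, and put through 2, 4, 6 or 10 freeze–thaw cycles. Samples were methoxymated and trimethylsilylated, then run by electron-ionization GC/MS in MRM mode on a BPX5 column (60 to 330 °C). Detection intensity is given relative to the 2-cycle sample, set as 1.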

[3] = GC/MS of blood plasma sample: number of times of freezing and thawing (Table C); conditions: for Rate of increase or decrease: detection intensity relative to 1 at 2 times; for Increase or decrease: detection intensity
Experimental: as §1, §2, §3, §4, §5, §6, §7, §8, §9, §10, §11, §12, §13
The rate of increase or decrease in Table C is the value of detection intensity relative to 1 that is the detection intensity in a case where the number of times of freezing and thawing is set to 2 times.

[4] = LC/MS of serum sample: number of times of freezing and thawing (Table M); design: key to Rate of increase or decrease: detection intensity relative to 1 at 2 freeze-thaw cycles
How it was run: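 Serum was isolated at room temperature after centrifugation at room temperature, 3500 rpm, 5 minutes, then frozen and freeze-thawed 2, 4, 6 or 10 times. LC/MS used a Discovery HS F5-3 column at 40° C with formic acid water/acetonitrile, electrospray MRM. Intensity is relative to 2 freeze-thaw cycles.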

[5] = GC/MS of serum sample: time from blood collection to centrifugation (Table G); conditions: blood collection to centrifugation; for Rate of increase or decrease: detection intensity relative to 1 at 15 minutes; for Increase or decrease: detection intensity
How it was run: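 Blood was held for varying times before centrifugation (room temperature, 3500 rpm, 5 min); serum was frozen, then methoxymated and trimethylsilylated for GC/MS with electron ionization in MRM mode. Values are detection intensities relative to the 15-minute collection-to-centrifugation condition, set as 1.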

[6] = LC/MS of blood plasma sample: time from blood collection to centrifugation (Table D); conditions: blood collection to centrifugation
How it was run: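 Healthy-subject blood (5 mL, EDTA) cooled and held at 4 °C before centrifugation (4 °C, 3000 rpm, 15 min), with plasma then frozen. LC/MS on Discovery HS F5-3 column at 40 °C, 0.1% formic acid water/acetonitrile, 0.25 mL/min, electrospray, MRM; intensities relative to 15 min collection-to-centrifugation set as 1.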

[7] = GC/MS of blood plasma sample: time from blood collection to centrifugation (Table A); conditions: for Increase or decrease: detection intensity; for Rate of increase or decrease (second value, decrease) / Rate of increase or decrease (first value, increase): different from individual to individual, relative to 1 at 15 minutes, collection to centrifugation, after 4 hours; for Rate of increase or decrease (second value, decrease): individuals with decrease; for Rate of increase or decrease (first value, increase): individuals with increase
Experimental: as §1, §2, §3, §4, §5, §6, §7, §8, §9, §10, §11, §12, §13
The rate of increase or decrease in Table A is the value of detection intensity relative to 1 that is the detection intensity in a case where the time from blood collection to centrifugation is set to 15 minutes.

[8] = GC/MS of serum sample: time from centrifugation to isolation (Table H); design: key to Rate of increase or decrease / Rate of increase or decrease (first value, increase): detection intensity relative to 1 at 30 min centrifugation-to-isolation; conditions: for Increase or decrease: detection intensity, after 6 hours vs 30 minutes
How it was run: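 Blood was centrifuged at room temperature, 3500 rpm, 5 min, and the vessel left at room temperature for 30 min, 1 h or 6 h before serum isolation. Serum was methoxymated, trimethylsilylated and analysed by GC/MS with electron ionization in MRM mode; intensities expressed relative to the 30-min condition (=1).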

[9] = detection intensity relative to 1 at 2 times, serum, GC/MS, freezing and thawing 4 times
[10] = detection intensity, serum, GC/MS, freezing and thawing 4 times vs 2 times
[11] = blood collection to centrifugation, after 4 hours vs 15 minutes

SMILES	Increase or decrease [1]	Rate of increase or decrease [2, 9]	Increase or decrease [2, 10]	Rate of increase or decrease [1]	Increase or decrease [7, 11]	Rate of increase or decrease (second value, decrease) [7]	Rate of increase or decrease (first value, increase) [7]	Increase or decrease [8]	Rate of increase or decrease ([5]; after 4 hours)	Increase or decrease ([5]; after 4 hours vs 15 minutes)	other results
O=C(O)C(O)Cc1ccccc1 (stereo not shown) [3-Phenyllactic acid]	Different from individual	0.68	Decrease								Rate of increase or decrease (second value, decrease) ([1]; different from individual to individual, individuals with decrease, relative to 1 at 1 minute or less, collection to cooling 5 minutes): 0.60; Rate of increase or decrease (first value, increase) ([1]; different from individual to individual, individuals with increase, relative to 1 at 1 minute or less, collection to cooling 5 minutes): 1.47; Rate of increase or decrease ([3]; freezing and thawing 10 times): 0.62; Increase or decrease ([3]; freezing and thawing 10 times vs 2 times): Decrease
O=c1[nH]c(=O)c2[nH]c(=O)[nH]c2[nH]1 [Uric acid]	Decrease			0.49							Rate of increase or decrease ([2]; 10 times of freezing and thawing, relative to 1 at 2 times, different from individual to individual, first value (increase)): 1.33; Rate of increase or decrease ([2]; 10 times of freezing and thawing, relative to 1 at 2 times, different from individual to individual, second value (decrease)): 0.66; Number of times when compound is affected ([2]; serum sample, GC/MS, detection intensity changed by 30% or more vs 2 times of freezing and thawing): 10 times; Increase or decrease ([2]; serum sample, GC/MS, detection intensity vs 2 times of freezing and thawing): Different from individual; Rate of increase or decrease ([4]; 6 times of freezing and thawing, detection intensity relative to 1 at 2 times): 0.70; Number of times when compound is affected ([4]; serum sample, LC/MS, detection intensity changed by 30% or more vs 2 times of freezing and thawing): 6 times; Increase or decrease ([4]; serum sample, LC/MS, detection intensity vs 2 times of freezing and thawing): Decrease; Rate of increase or decrease ([5]; after 8 hours): 0.69; Increase or decrease ([5]; after 8 hours vs 15 minutes): Decrease; Rate of increase or decrease ([6]; detection intensity relative to 1 at 15 minutes, after 12 hours): 1.52; Increase or decrease ([6]; detection intensity, after 12 hours vs 15 minutes): Increase; Rate of increase or decrease ([7]; detection intensity relative to 1 at 15 minutes, blood collection to centrifugation, after 12 hours): 1.89; Increase or decrease ([7]; blood collection to centrifugation, after 12 hours vs 15 minutes): Increase
CCC(=O)C(=O)O [2-Ketobutyric acid]	Decrease			0.67	Different from individual	0.64	1.48				
CC(=O)NCCCC[C@H](N)C(=O)O [N6-acetyllysine]	Decrease	0.67	Decrease	0.61				Different from individual	1.55	Increase	Rate of increase or decrease (second value, decrease) ([8]; different from individual to individual, individuals with decrease, relative to 1 at 30 minutes, after 6 hours): 0.58; Rate of increase or decrease (first value, increase) ([8]; different from individual to individual, individuals with increase, relative to 1 at 30 minutes, after 6 hours): 1.71; Rate of increase or decrease ([3]; freezing and thawing 6 times): 0.57; Increase or decrease ([3]; freezing and thawing 6 times vs 2 times): Decrease
O=C(O)C(=O)O [Oxalic acid]	Increase	0.61	Decrease	1.58	Different from individual	0.32	3.80	Increase	1.31	Increase	Rate of increase or decrease ([8]; detection intensity relative to 1 at 30 minutes, after 6 hours): 1.67
